In patent US4414224A (SmithKline Beckman Corporation, priority 1982, dated 1983):

How the values were obtained:
normal anesthetized dog = experiment: Intravenous infusion in the normal anesthetized dog (MAP, RBF, RVR, HR); assay type: in vivo; conditions: i.v. infusion
alpha1 = experiment: Isolated perfused rabbit ear artery preparation, vasoconstriction indicative of alpha1 activity; assay type: cell-based
Text: The isolated perfused rabbit ear artery preparation described by J. P. Hiebel and R. G. Pendleton, Arch.

[1] = 3 μg/kg/min (base), dopamine run in each test for comparison
[2] = 0.3 μg/kg/min (base), A in 10% dimethylsulfoxide in 0.9% saline

SMILES | % Change HR (heart rate) (normal anesthetized dog; [1]) | % Change MAP (mean arterial blood pressure) (normal anesthetized dog; [1]) | % Change RBF (mean renal blood flow) (normal anesthetized dog; [1]) | % Change RVR (renal vascular resistance) (normal anesthetized dog; [1]) | % Change HR (heart rate) (normal anesthetized dog; 30 μg/kg/min (base)) | % Change MAP (mean arterial blood pressure) (normal anesthetized dog; 30 μg/kg/min (base)) | % Change RBF (mean renal blood flow) (normal anesthetized dog; 30 μg/kg/min (base)) | % Change RVR (renal vascular resistance) (normal anesthetized dog; 30 μg/kg/min (base)) | % Change HR (heart rate) (normal anesthetized dog; 300 μg/kg/min (base)) | % Change MAP (mean arterial blood pressure) (normal anesthetized dog; 300 μg/kg/min (base)) | % Change RBF (mean renal blood flow) (normal anesthetized dog; 300 μg/kg/min (base)) | % Change RVR (renal vascular resistance) (normal anesthetized dog; 300 μg/kg/min (base)) | concentration at which vasoconstriction indicative of alpha1 activity was observed (alpha1) | % Change HR (heart rate) (normal anesthetized dog; [2]) | % Change MAP (mean arterial blood pressure) (normal anesthetized dog; [2]) | % Change RBF (mean renal blood flow) (normal anesthetized dog; [2]) | % Change RVR (renal vascular resistance) (normal anesthetized dog; [2])
Br.NCCc1ccc(O)c2c1CC(=O)N2 [C, 4-(2-aminoethyl)-7-hydroxy-2(3H)-indolone hydrobromide] | -2.9% | -10.6% | -12.7% | +4.1% | -2.9% | -16.1% | -12.3% | -2.7% | -15.8% | +62.6% | -32.7% | +167.0% |  |  |  |  | 
CCCN(CCC)CCc1ccc(O)c2c1CC(=O)N2 [4-(2-di-n-propylaminoethyl)-7-hydroxy-2(3H)-indolone] |  |  |  |  |  |  |  |  |  |  |  |  | about 1000 nM |  |  |  | 
Br.CCCN(CCC)CCc1ccc(O)c2c1CC(=O)N2 [A, 4-(2-di-n-propylaminoethyl)-7-hydroxy-2(3H)-indolone hydrobromide] | -11.2% | -24.7% | +24.7% | -39.1% | -6.9% | +28.4% | -19.4% | +59.2% |  |  |  |  |  | +3.6% | -5.1% | +4.6% | -0.5%
CCCN(CCC)CCc1ccc(OC)c2c1CC(=O)N2.Cl [B, 4-(2-di-n-propylaminoethyl)-7-methoxy-2(3H)-indolone hydrochloride] | -4.5% | -3.6% | -11.6% | +8.9% | -8.3% | -7.8% | +2.8% | -9.5% | -7.8% | +0.1% | +0.7% | +1.6% |  |  |  |  | 
COc1ccc(CCN)c2c1NC(=O)C2.Cl [D, 4-(2-aminoethyl)-7-methoxy-2(3H)-indolone hydrochloride] | -1.5% | -0.7% | +6.7% | -7.0% | -2.8% | -2.3% | +7.5% | -9.2% | -1.6% | -9.8% | +2.1% | -9.4% |  |  |  |  | 
